The IC50 is the point on the concentration scale where inhibition reaches its midpoint.

Among the data in US9878994B2, “2-H-indazole derivatives as cyclin-dependent kinase (CDK) inhibitors and therapeutic uses thereof” (Beta Pharma, Inc., priority 2014, dated 2018) are IC50 values, retold here.

SMILES strings stand for the structures. Read-outs that look alike come from different tables or passages of the source. Where only a bound is given, the exact number is not on record here.

Experiment [1] concerns the target CDK6 (Homo sapiens, UniProt Q00534). Kind of experiment: CDK6 biochemical assay (33P-ATP filter-binding kinase assay). The method, then: (§1) Cyclin Dl was added to freshly prepared reaction buffer [20 mM Hepes (pH 7.5), 10 mM MgCl2, 1 mM EGTA, 0.02% Brij 35, 0.02 mg/mL BSA, 0.1 mM Na3VO4, 2 mM DTT, 1% DMSO]. CDK4 or CDK6 was delivered to the substrate solution and gently mixed. […] The compounds, diluted in DMSO, were added into the kinase reaction mixture by Acoustic technology (Echo550; nanoliter range) and incubated for 20 minutes at room temperature. 33P-ATP (1 μM) was added to the reaction mixture to initiate the reaction. The kinase reaction was incubated for 2 hours at room temperature. The reactions were spotted onto P81 ion exchange paper and the kinase activity detected by filter-binding method. Curves were fitted to a nonlinear regression curve using a four parameter logistic equation (GraphPad Prism).

Experiment [2] concerns the target CDK4 (Homo sapiens, UniProt P11802). Put plainly: CDK4 biochemical assay (33P-ATP filter-binding kinase assay). The procedure:
as §1

For experiment [3], the system named is MCF7 human tumor cells. Kind of experiment: MCF7 cell assay (Cell Titer-Glo, inhibition of cell growth). The experiment is classed as cell-based. The note with it: 72 hours of culture. The method, then: The MCF7 human tumor cells were seeded in a clear polystyrene 96-well microculture plate (Corning® Costar® 96-well flat bottom plate, Cat. #3997) in a total volume of 90 μL/well. After 24 hours of incubation in a humidified incubator at 37° C. with 5% CO2 and 95% air, 10 μL of 10×, serially diluted 1 in growth medium was added to each well in duplicate (10 point dose response). After 72 hours of culture in a humidified incubator at 37° C., in an atmosphere of 5% CO2 and 95% air, the plated cells and Cell Titer-Glo® (Promega G7571) reagents were brought to room temperature to equilibrate for 30 minutes. 100 μL of Cell Titer-Glo® reagent was added to each well. The plate was shaken for two minutes and then left to equilibrate for ten minutes. The medium/Cell Titer Glo® reagent was transferred to a white polystyrene 96-well microculture plate (Corning® Costar® 96-well flat bottom plate, Cat. #3917) before reading luminescence on the Tecan GENios microplate reader. Percent inhibition of cell growth was calculated relative to untreated control wells. All tests were performed in duplicate at each concentration level. The IC50 value for the test agents was estimated using Prism 6.05 by curve-fitting the data using the following four parameter-logistic equation: […]
(Cellular ATP, detected with luciferase, serves as a proxy for viable cell number.)

CDK6, sequence (Q00534 whole entry): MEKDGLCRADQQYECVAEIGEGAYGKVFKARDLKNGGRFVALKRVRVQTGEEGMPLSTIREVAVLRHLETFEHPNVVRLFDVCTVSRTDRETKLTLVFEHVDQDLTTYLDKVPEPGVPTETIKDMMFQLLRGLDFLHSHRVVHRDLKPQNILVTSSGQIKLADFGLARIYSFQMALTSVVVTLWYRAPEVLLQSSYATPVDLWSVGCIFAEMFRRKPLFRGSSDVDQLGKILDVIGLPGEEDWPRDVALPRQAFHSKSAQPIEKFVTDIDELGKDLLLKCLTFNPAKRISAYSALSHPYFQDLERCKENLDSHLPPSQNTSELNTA
CDK6, sequence (P24385 whole entry partner): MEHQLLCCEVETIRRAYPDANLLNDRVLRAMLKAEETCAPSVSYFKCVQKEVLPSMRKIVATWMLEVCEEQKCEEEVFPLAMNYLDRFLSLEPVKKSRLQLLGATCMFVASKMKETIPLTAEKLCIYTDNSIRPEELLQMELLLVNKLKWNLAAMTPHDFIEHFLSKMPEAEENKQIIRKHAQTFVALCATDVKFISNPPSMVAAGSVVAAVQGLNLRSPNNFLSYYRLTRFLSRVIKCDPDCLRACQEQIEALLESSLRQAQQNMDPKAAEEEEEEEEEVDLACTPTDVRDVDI
CDK4, sequence (P11802 whole entry): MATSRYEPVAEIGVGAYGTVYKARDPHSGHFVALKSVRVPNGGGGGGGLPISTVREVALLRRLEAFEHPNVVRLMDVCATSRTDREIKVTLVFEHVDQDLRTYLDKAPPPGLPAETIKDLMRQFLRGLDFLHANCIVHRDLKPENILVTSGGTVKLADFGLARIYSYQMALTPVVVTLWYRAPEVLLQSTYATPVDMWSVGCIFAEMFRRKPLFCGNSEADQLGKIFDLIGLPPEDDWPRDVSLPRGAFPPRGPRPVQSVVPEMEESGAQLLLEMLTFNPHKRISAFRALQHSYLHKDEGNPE
CDK4, sequence (P24385 whole entry partner): as the sequence (P24385 whole entry partner) above

`CC(=O)c1c(C)c2nc(Nc3ccc(N4CCNCC4)cn3)ncc2n(C2CCCC2)c1=O` [Compound 34]: the IC50 is under 0.002 µM in experiment [1] (assay conditions described herein, read-out: IC50 CDK6 biochemical assay); under 0.001 µM in experiment [2] (assay conditions described herein, read-out: IC50 CDK4 biochemical assay); 10 µM in experiment [3].

In experiment [3], `CN(C)C(=O)c1cc2cnc(Nc3ccc(N4CCNCC4)cn3)nc2n1C1CCCC1` [Compound 32] had an IC50 of 10 µM.

Turning to `CCN1CCN(Cc2ccc(Nc3ncc(F)c(-c4ccc5nn(C)c(C(C)C)c5c4)n3)nc2)CC1` [Compound 1, N-(5-((4-ethylpiperazin-1-yl)methyl)pyridin-2-yl)-5-fluoro-4-(3-isopropyl-2-methyl-2H-indazol-5-yl)pyrimidin-2-amine], the IC50 in experiment [1] (Cyclin D1, 1 μM 33P-ATP, 2 hours at room temperature, read-out: IC50 in CDK6 assay) is under 0.001 µM; in experiment [2] (Cyclin D1, 1 μM 33P-ATP, 2 hours at room temperature, read-out: IC50 in CDK4 assay), under 0.001 µM; in experiment [3], under 2 µM.

`CCN1CCN(Cc2ccc(Nc3ncc(F)c(-c4cc(F)c5nc(C)n(C(C)C)c5c4)n3)nc2)CC1` [Compound 33]: the IC50 in experiment [3] is under 2 µM.
